Our source for the Activity and IC50 values is ChEMBL document CHEMBL3785043, “Exploring the purine core of 3'-C-ethynyladenosine (EAdo) in search of novel nucleoside therapeutics” (Bioorg Med Chem Lett, 2016).

The source made the active and inactive calls. The calls are words filed in the database; no cut-off is given here. Where only a bound is given, the exact number is not on record here.

The IC50 is the point on the concentration scale where inhibition reaches its midpoint.

The first test relates to Influenza A virus. Description: Antiviral activity against Influenza virus A H3N2 at 100 uM. Format: functional, organism-based.
Settings: not given
For the compound `C#C[C@@]1(O)[C@@H](CO)O[C@@H](n2cnc3c(OC)nc(N)nc32)[C@@H]1O`, the outcome was inactive.

The subject of another test is Influenza B virus. Briefly: Antiviral activity against Influenza virus B at 100 uM.
Settings: not given
It counts as functional, organism-based.
On to `C#C[C@@]1(O)[C@@H](CO)O[C@@H](n2cnc3c(OC)nc(N)nc32)[C@@H]1O`, for which the outcome was inactive.

The test system of a further test is Mammalian orthoreovirus 1. Description: Antiviral activity against Reovirus 1 at 100 uM. It counts as functional.
Settings: not given
Take `C#C[C@@]1(O)[C@@H](CO)O[C@@H](n2cnc3c(OC)nc(N)nc32)[C@@H]1O`: the outcome was inactive.

Another test deals with Punta Toro virus. Briefly: Antiviral activity against Punta Toro virus at 100 uM. It counts as functional, organism-based.
Settings: not given
Regarding `C#C[C@@]1(O)[C@@H](CO)O[C@@H](n2cnc3c(OC)nc(N)nc32)[C@@H]1O`, the result was inactive.

For the next test, the system named is Human immunodeficiency virus 1. Briefly: Antiviral activity against HIV1 3B infected in human MT4 cells at 100 uM preincubated with cells for 30 mins followed by HIV inoculation measured after 4 to 5 days by microscopic analysis. Format: functional, organism-based.
Settings: not given
Consider `C#C[C@@]1(O)[C@@H](CO)O[C@@H](n2cnc3c(OC)nc(N)nc32)[C@@H]1O`, for which the result was inactive.

For the next test, the system named is Human immunodeficiency virus 1. Briefly: Antiviral activity against HIV 1 NL4-3 infected in human MT4 cells at 100 uM preincubated with cells for 30 mins followed by HIV inoculation measured after 4 to 5 days by microscopic analysis. Format: functional, organism-based.
Settings: not given
With `C#C[C@@]1(O)[C@@H](CO)O[C@@H](n2cnc3c(OC)nc(N)nc32)[C@@H]1O`, the outcome was inactive.

A further test has as its system Human immunodeficiency virus 2. Briefly: Antiviral activity against HIV2 ROD infected in human MT4 cells at 100 uM preincubated with cells for 30 mins followed by HIV inoculation measured after 4 to 5 days by microscopic analysis. It counts as functional, organism-based. The note with it: ISOLATE ROD.
With `C#C[C@@]1(O)[C@@H](CO)O[C@@H](n2cnc3c(OC)nc(N)nc32)[C@@H]1O`, the result was inactive.

A further test deals with L1210. Briefly: Cytostatic activity against mouse L1210 cells after 48 hrs by Coulter counter method. Format: functional, cell-based. To be noted: L1210, 48 h.
Compound `C#C[C@@]1(O)[C@@H](CO)O[C@@H](n2cnc3c(OC)nc(N)nc32)[C@@H]1O` gave an IC50 above 250 µM.

The next test has as its system CCRF-CEM. Briefly: Cytostatic activity against human CEM cells after 72 hrs by Coulter counter method. It counts as functional, cell-based.
Settings: not given
Consider `C#C[C@@]1(O)[C@@H](CO)O[C@@H](n2cnc3c(OC)nc(N)nc32)[C@@H]1O`, for which the IC50 was above 250 µM.

The subject of the next test is Sindbis virus. Briefly: Antiviral activity against Sindbis virus at 100 uM.
Settings: not given
It counts as functional, organism-based.
In the case of `C#C[C@@]1(O)[C@@H](CO)O[C@@H](n2cnc3c(OC)nc(N)nc32)[C@@H]1O`, the result was inactive.

The test system of the next test is HeLa. Briefly: Cytostatic activity against human HeLa cells after 72 hrs by Coulter counter method. It counts as functional, cell-based.
Settings: not given
On to `C#C[C@@]1(O)[C@@H](CO)O[C@@H](n2cnc3c(OC)nc(N)nc32)[C@@H]1O`, for which the IC50 is above 250 µM.

Another test deals with Human alphaherpesvirus 1. Description: Antiviral activity against Aciclovir-resistant thymidine kinase-deficient HSV-1 KOS at 100 uM. It counts as functional, organism-based.
Settings: not given
As to `C#C[C@@]1(O)[C@@H](CO)O[C@@H](n2cnc3c(OC)nc(N)nc32)[C@@H]1O`, the outcome was inactive.

In a further test the test system is Human betaherpesvirus 5. Description: Antiviral activity against Human cytomegalovirus AD169 at 100 uM. It counts as functional, organism-based.
Settings: not given
`C#C[C@@]1(O)[C@@H](CO)O[C@@H](n2cnc3c(OC)nc(N)nc32)[C@@H]1O`: the outcome was inactive.

The subject of a further test is Human betaherpesvirus 5. Briefly: Antiviral activity against Human cytomegalovirus Davis at 100 uM. It counts as functional, organism-based.
Settings: not given
Take `C#C[C@@]1(O)[C@@H](CO)O[C@@H](n2cnc3c(OC)nc(N)nc32)[C@@H]1O`: the result was inactive.

The next test deals with Vesicular stomatitis virus. Description: Antiviral activity against VSV at 100 uM. It counts as functional, organism-based.
Settings: not given
As for `C#C[C@@]1(O)[C@@H](CO)O[C@@H](n2cnc3c(OC)nc(N)nc32)[C@@H]1O`, the outcome was inactive.

Another test has as its system Human alphaherpesvirus 1. Description: Antiviral activity against HSV-1 KOS at 100 uM. It counts as functional, organism-based.
Settings: not given
In the case of `C#C[C@@]1(O)[C@@H](CO)O[C@@H](n2cnc3c(OC)nc(N)nc32)[C@@H]1O`, the result was inactive.

The next test deals with Human alphaherpesvirus 2. Description: Antiviral activity against HSV-2 lyons at 100 uM.
Settings: not given
It counts as functional, organism-based.
Take `C#C[C@@]1(O)[C@@H](CO)O[C@@H](n2cnc3c(OC)nc(N)nc32)[C@@H]1O`: the result was inactive.

For another test, the system named is Human alphaherpesvirus 2. Briefly: Antiviral activity against HSV-2 G at 100 uM. It counts as functional, organism-based. The note with it: strain G.
In the case of `C#C[C@@]1(O)[C@@H](CO)O[C@@H](n2cnc3c(OC)nc(N)nc32)[C@@H]1O`, the result was inactive.

The next test relates to Human adenovirus 2. Briefly: Antiviral activity against Adenovirus 2 at 100 uM. It counts as functional, organism-based.
Settings: not given
As for `C#C[C@@]1(O)[C@@H](CO)O[C@@H](n2cnc3c(OC)nc(N)nc32)[C@@H]1O`, the outcome was inactive.

The next test concerns Respiratory syncytial virus. Description: Antiviral activity against Respiratory syncytial virus long at 100 uM. It counts as functional, organism-based.
Settings: not given
Take `C#C[C@@]1(O)[C@@H](CO)O[C@@H](n2cnc3c(OC)nc(N)nc32)[C@@H]1O`: the outcome was inactive.

For a further test, the system named is Coxsackievirus B4. Briefly: Antiviral activity against Coxsackie B4 virus at 100 uM. Format: functional, organism-based.
Settings: not given
`C#C[C@@]1(O)[C@@H](CO)O[C@@H](n2cnc3c(OC)nc(N)nc32)[C@@H]1O`: the outcome was inactive.

The subject of another test is Human respirovirus 3. Description: Antiviral activity against parainfluenza virus 3 at 100 uM. Format: functional, organism-based.
Settings: not given
Regarding `C#C[C@@]1(O)[C@@H](CO)O[C@@H](n2cnc3c(OC)nc(N)nc32)[C@@H]1O`, the outcome was inactive.

The subject of a further test is Influenza A virus. Briefly: Antiviral activity against Influenza virus A H1N1 at 100 uM.
Settings: not given
It counts as functional, organism-based.
Turning to `C#C[C@@]1(O)[C@@H](CO)O[C@@H](n2cnc3c(OC)nc(N)nc32)[C@@H]1O`, the result was inactive.
